Assay results: patent publication US20110212196A1, “THERAPEUTIC OIL COMPOSITION CONTAINING CARVONE” (MAINE CONSERVATION MEDICINE CENTER, priority 2010, published 2011)

How the values were obtained:
fish = conditions: in vivo; cited from earlier work
elasmobranch fishes = assay: anesthesia of elasmobranch fishes by immersion; assay type: in vivo, spiny dogfish Squalus acanthias; conditions: 400-600 mg/L carvone alone, oil-in-water emulsion
Excerpt: 3. […] For examples spiny dogfish Squalus acanthias can be anesthetized by immersion.

SMILES | safety during anesthesia/euthanasia (fish) | anesthesia (elasmobranch fishes)
O=C=O [carbon dioxide] | Some fish died during anesthesia | 
C=C(C)C1CC=C(C)C(=O)C1 (centres unmarked) [carvone] |  | will anesthetize
